Experimental data as given in patent US20250034139A1, “AMINE COMPOUNDS HAVING ANTI-INFLAMMATORY, ANTIFUNGAL, ANTIPARASITIC, AND ANTICANCER ACTIVITY” (PHARMA CINQ, LLC, priority 2013, published 2025).

Tests used:
[1] = system: 4T1 murine breast cancer cells; test: Example S: in vitro anticancer screen, 4T1 cells, Wst1; assay type: cell-based, mouse; conditions: Mus musculus, 4T1, 18 h, 18 hr, Wst1; for viability at 1 µM: read-out: 4T1 1 μM, percent of cancer cell survival relative to vehicle treated cells; for viability at 5 µM: read-out: 4T1 5 μM, percent of cancer cell survival relative to vehicle treated cells
Procedure, shortened: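 4T1 cells seeded at 1×10^4/well were exposed to compound at 1 μM or 5 μM for 18 hr after plating. Wst1 tetrazolium dye was then added for about 2 hr and absorbance read at 450 nm (reference 630 nm). Values are percent survival relative to vehicle-treated cells.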

[2] = system: PC-3 prostate cancer cells; test: Example T: sensitisation of PC-3 cells to doxorubicin, oxaliplatin, paclitaxel or vincristine, Wst1; assay type: cell-based, human; conditions: PC-3 cells, 72 hours; for viability at 2.5 µM: compound 2.5 μM alone; for Doxorubicin 3.5 μM: percent cell survival / Oxaliplatin 100 μM: percent cell survival / Paclitaxel 50 μM: percent cell survival / Vincristine 100 nM: percent cell survival: chemotherapy agent alone normalized to 100%; for viability at 0.4 µM: compound 0.4 μM alone
THP-1 cells = test: Example D: LPS-triggered THP-1 cell death assay, acute/5-hour and chronic/48-hour; assay type: cell-based, Human; conditions: for Viable cell percent change, Chronic/48-hour, Mean: 10 ng/ml LPS, 0.1 μM test compound
Procedure: Compounds of the invention were tested at 0.1 μM versus AC in the LPS-triggered THP-1 cell death assay. Both acute/5-hour and chronic/48-hour phases of cell death were assessed. Compounds were screened in batches with DMSO as the negative control and AC as the high activity control.

[3] = system: PC3 human prostate cancer cells; test: Example S: in vitro anticancer screen, PC-3 cells, Wst1; assay type: cell-based; conditions: Homo sapiens, PC-3, approximately 20 hours, Wst1, read-out: PC-3, percent of cancer cell survival relative to vehicle treated cells
Procedure: Activity against PC3 human prostate cancer cells in vitro was assessed by a similar method. PC-3 prostate cancer cells were plated at 2×10^4 cells/well in 96 well flat bottom tissue culture plates, and incubated for approximately 20 hours with vehicle or test compounds at concentrations of 0.4, 0.5 or 2.5 μM as indicated for specific compounds in the right-hand column of Table 37. A 1/10th volume of Wst1 dye was added/well and incubated for two hours in the cell culture incubator. Samples were analyzed in triplicate on an EL800 Universal Microplate Reader at 450 nm, reference wavelength 630 nm.
Numerical values in the Table 37 represent percent of cancer cell survival relative to vehicle treated cells at the indicated concentrations, with values under 100 indicating anticancer cytotoxic activity at the drugs concentrations tested.

[4] = Homo sapiens, Wst1, vehicle = 100, read-out: No Chemo: percent cell survival
[5] = compound 2.5 μM + doxorubicin 3.5 μM
[6] = compound 2.5 μM + oxaliplatin 100 μM
[7] = compound 2.5 μM + paclitaxel 50 μM
[8] = compound 2.5 μM + vincristine 100 nM
[9] = compound 0.4 μM + doxorubicin 3.5 μM
[10] = compound 0.4 μM + oxaliplatin 100 μM
[11] = compound 0.4 μM + paclitaxel 50 μM
[12] = compound 0.4 μM + vincristine 100 nM

SMILES: CCCCCCOc1ccccc1OCCCCNc1ccnc2ccccc12 [CR, N-{4-[2-(Hexyloxy)phenoxy]butyl}quinolin-4-amine]
- viability at 1 µM [1]: 110%
- viability at 5 µM [1]: 31.8%
- viability at 2.5 µM [2, 4]: 53.2%
- Doxorubicin 3.5 μM: percent cell survival [2, 5]: 87.6%
- Oxaliplatin 100 μM: percent cell survival [2, 6]: 89.3%
- Paclitaxel 50 μM: percent cell survival [2, 7]: 93.4%
- Vincristine 100 nM: percent cell survival [2, 8]: 86.9%
- Viable cell percent change, Chronic/48-hour, Mean (THP-1 cells): 40.02%
- viability at 2.5 µM [3]: 53.2%

SMILES: CCCCCCOc1cccc(OCCCCNc2ccnc3ccccc23)c1 [CV, N-{4-[3-(Hexyloxy)phenoxy]butyl}quinolin-4-amine]
- viability at 1 µM [1]: 25.7%
- viability at 5 µM [1]: 16.9%
- viability at 0.5 µM ([2]; Homo sapiens, compound 0.5 μM alone, Wst1, vehicle = 100, read-out: No Chemo: percent cell survival): 73.8%
- Doxorubicin 3.5 μM: percent cell survival ([2]; compound 0.5 μM + doxorubicin 3.5 μM): 36.2%
- Oxaliplatin 100 μM: percent cell survival ([2]; compound 0.5 μM + oxaliplatin 100 μM): 30.6%
- Paclitaxel 50 μM: percent cell survival ([2]; compound 0.5 μM + paclitaxel 50 μM): 21.4%
- Vincristine 100 nM: percent cell survival ([2]; compound 0.5 μM + vincristine 100 nM): 36.1%
- Viable cell percent change, Chronic/48-hour, Mean (THP-1 cells): 23.02%
- activity relative to AC in the LPS-triggered THP-1 cell death assay, in words (THP-1 cells; 0.1 μM, 5-hour and 48-hour time points): equivalent activity to AC at both the 5-hour and 48-hour time points
- viability at 0.5 µM ([3]; 0.5 μM): 73.8%

SMILES: CCCCCCOc1cccc(OCCNc2ccnc3ccccc23)c1 [CW, N-{2-[3-(Hexyloxy)phenoxy]ethyl}quinolin-4-amine]
- viability at 1 µM [1]: 25.1%
- viability at 5 µM [1]: 18.4%
- viability at 0.4 µM [2, 4]: 98.5%
- Doxorubicin 3.5 μM: percent cell survival [2, 9]: 31.9%
- Oxaliplatin 100 μM: percent cell survival [2, 10]: 26.6%
- Paclitaxel 50 μM: percent cell survival [2, 11]: 55.9%
- Vincristine 100 nM: percent cell survival [2, 12]: 69.4%
- Viable cell percent change, Chronic/48-hour, Mean (THP-1 cells): 43.71%
- viability at 0.4 µM [3]: 98.5%

SMILES: CCCCCCOc1ccc(OCCCNc2ccnc3ccccc23)cc1 [CY, N-{3-[4-(Hexyloxy)phenoxy]propyl}quinolin-4-amine]
- viability at 1 µM [1]: 24.5%
- viability at 5 µM [1]: 29.1%
- viability at 0.4 µM [2, 4]: 40.5%
- Doxorubicin 3.5 μM: percent cell survival [2, 9]: 76.6%
- Oxaliplatin 100 μM: percent cell survival [2, 10]: 84.3%
- Paclitaxel 50 μM: percent cell survival [2, 11]: 71.7%
- Vincristine 100 nM: percent cell survival [2, 12]: 81.7%
- Viable cell percent change, Chronic/48-hour, Mean (THP-1 cells): 47.86%
- viability at 0.4 µM [3]: 40.5%

SMILES: CC(C)(C)c1ccc(OCCCCCCCCNc2ccnc3ccccc23)cc1 [DA, N-[8-(4-tert-Butylphenoxy)octyl]quinolin-4-amine]
- viability at 1 µM [1]: 17.6%
- viability at 5 µM [1]: 18.4%
- viability at 0.4 µM [2, 4]: 95.7%
- Doxorubicin 3.5 μM: percent cell survival [2, 9]: 82.8%
- Oxaliplatin 100 μM: percent cell survival [2, 10]: 91.3%
- Paclitaxel 50 μM: percent cell survival [2, 11]: 100.8%
- Vincristine 100 nM: percent cell survival [2, 12]: 19.1%
- Viable cell percent change, Chronic/48-hour, Mean (THP-1 cells): 43.55%
- viability at 0.4 µM [3]: 95.7%

SMILES: Fc1ccccc1OCCCCCCCCNc1ccnc2ccccc12 [DB, N-[8-(2-Fluorophenoxy)octyl]quinolin-4-amine]
- viability at 1 µM [1]: 20.1%
- viability at 5 µM [1]: 22.2%
- viability at 0.4 µM [2, 4]: 24.7%
- Doxorubicin 3.5 μM: percent cell survival [2, 9]: 56%
- Oxaliplatin 100 μM: percent cell survival [2, 10]: 62.3%
- Paclitaxel 50 μM: percent cell survival [2, 11]: 40.3%
- Vincristine 100 nM: percent cell survival [2, 12]: 29.6%
- Viable cell percent change, Chronic/48-hour, Mean (THP-1 cells): 20.47%
- viability at 0.4 µM [3]: 24.7%

SMILES: c1ccc(Oc2ccccc2Nc2ccnc3ccccc23)cc1 [DF, N-(2-Phenoxyphenyl)quinolin-4-amine]
- viability at 1 µM [1]: 27.1%
- viability at 5 µM [1]: 20.8%
- viability at 0.4 µM [2, 4]: 102%
- Doxorubicin 3.5 μM: percent cell survival [2, 9]: 88.7%
- Oxaliplatin 100 μM: percent cell survival [2, 10]: 96.5%
- Paclitaxel 50 μM: percent cell survival [2, 11]: 89.4%
- Vincristine 100 nM: percent cell survival [2, 12]: 95.4%
- Viable cell percent change, Chronic/48-hour, Mean (THP-1 cells): 39.26%
- viability at 0.4 µM [3]: 102%

SMILES: c1ccc(COc2ccc(Nc3ccnc4ccccc34)cc2)cc1 [DJ, N-[4-(Benzyloxy)phenyl]quinolin-4-amine]
- viability at 1 µM [1]: 89%
- viability at 5 µM [1]: 66.9%
- viability at 2.5 µM [2, 4]: 85.9%
- Doxorubicin 3.5 μM: percent cell survival [2, 5]: 116.2%
- Oxaliplatin 100 μM: percent cell survival [2, 6]: 137.1%
- Paclitaxel 50 μM: percent cell survival [2, 7]: 137.1%
- Vincristine 100 nM: percent cell survival [2, 8]: 115.3%
- Viable cell percent change, Chronic/48-hour, Mean (THP-1 cells): 22.32%
- viability at 2.5 µM [3]: 85.9%

SMILES: CCCCCCOc1ccc(Nc2ccnc3ccccc23)cc1 [DL, N-[4-(Hexyloxy)phenyl]quinolin-4-amine]
- viability at 1 µM [1]: 70.9%
- viability at 5 µM [1]: 21%
- viability at 2.5 µM [2, 4]: 43%
- Doxorubicin 3.5 μM: percent cell survival [2, 5]: 193.5%
- Oxaliplatin 100 μM: percent cell survival [2, 6]: 172.6%
- Paclitaxel 50 μM: percent cell survival [2, 7]: 164.8%
- Vincristine 100 nM: percent cell survival [2, 8]: 164.9%
- Viable cell percent change, Chronic/48-hour, Mean (THP-1 cells): 61.01%
- viability at 2.5 µM [3]: 43%

SMILES: c1ccc(COc2cccc(Nc3ccnc4ccccc34)c2)cc1 [DM, N-[3-(Benzyloxy)phenyl]quinolin-4-amine]
- viability at 1 µM [1]: 128%
- viability at 5 µM [1]: 47.8%
- viability at 2.5 µM [2, 4]: 45.6%
- Doxorubicin 3.5 μM: percent cell survival [2, 5]: 79.2%
- Oxaliplatin 100 μM: percent cell survival [2, 6]: 91.1%
- Paclitaxel 50 μM: percent cell survival [2, 7]: 105.4%
- Vincristine 100 nM: percent cell survival [2, 8]: 92.1%
- Viable cell percent change, Chronic/48-hour, Mean (THP-1 cells): 34.67%
- viability at 2.5 µM [3]: 45.6%

SMILES: CCCCCCOc1cccc(Nc2ccnc3ccccc23)c1 [DN, N-[3-(Hexyloxy)phenyl]quinolin-4-amine]
- viability at 1 µM [1]: 104%
- viability at 5 µM [1]: 56.7%
- viability at 2.5 µM [2, 4]: 31.7%
- Doxorubicin 3.5 μM: percent cell survival [2, 5]: 64.1%
- Oxaliplatin 100 μM: percent cell survival [2, 6]: 78%
- Paclitaxel 50 μM: percent cell survival [2, 7]: 64.7%
- Vincristine 100 nM: percent cell survival [2, 8]: 72.3%
- Viable cell percent change, Chronic/48-hour, Mean (THP-1 cells): 77.15%
- viability at 2.5 µM [3]: 31.7%

SMILES: c1ccc(COc2ccccc2Nc2ccnc3ccccc23)cc1 [DO, N-[2-(Benzyloxy)phenyl]quinolin-4-amine]
- viability at 1 µM [1]: 116%
- viability at 5 µM [1]: 35.2%
- viability at 2.5 µM [2, 4]: 59.2%
- Doxorubicin 3.5 μM: percent cell survival [2, 5]: 79.9%
- Oxaliplatin 100 μM: percent cell survival [2, 6]: 89.9%
- Paclitaxel 50 μM: percent cell survival [2, 7]: 93.4%
- Vincristine 100 nM: percent cell survival [2, 8]: 90.1%
- Viable cell percent change, Chronic/48-hour, Mean (THP-1 cells): 36.46%
- viability at 2.5 µM [3]: 59.2%
